Series [1] in a line: Clinical trial, pharmacokinetic study of the dose-escalation cohort. The class given is in vivo, human. The note with it: patients, first 4-week cycle.
Method: Based on the patient's weight, a dose escalation design with five dose cohorts of 2, 4, 6, 9 and 12 mg/kg was employed, which were injected intravenously once every two weeks, every 28 days as a cycle, and were given every cycle until the disease progressed or an intolerable toxic reaction occurred. The toxicity of all planned dose groups and some intermediate dose groups was evaluated by BLRM. Based on the model analysis, the sponsor and the researcher jointly decided the decision of dose increase.
The nature of series [2]: Toxicokinetic behavior of the conjugate and released toxin molecules after repeated intravenous dosing. The class given is in vivo, cynomolgus monkeys. The note with it: after the last dosing with 50 mg/kg conjugate A.
Method: The cynomolgus monkeys were divided into four groups according to different doses: control group, 25 mg/kg dose group, 50 mg/kg dose group and 75 mg/kg dose group, with 5 males and 5 females in each group. […] For the monkeys in each group, blood samples were collected before and immediately after, and 4 h, 24 h, 48 h, 96 h and 168 h after the first and last dosing (0-1 min after the end of dosing), 1 h before and immediately after the second and third dosing (0-1 min after the end of dosing), and 336 h after the last dosing.

These results are taken from patent EP4717277A1, “USE OF DRUG CONJUGATE IN TREATING TUMOR DISEASE AND METHOD THEREFOR” (Sichuan Kelun-Biotech Biopharmaceutical Co., Ltd., priority 2023, dated 2024).

Regarding `CC[C@@]1(O)C(=O)OCc2c1cc1n(c2=O)Cc2c-1nc1ccccc1c2CCN(C(C)C)S(C)(=O)=O` [toxins], in series [1], the “plasma exposure of free payload (area under the curve (AUC)) relative to that of Conjugate A” value is listed as about 5% and the “plasma exposure of free payload (maximum plasma concentration (Cmax)) relative to that of Conjugate A” value is given as “approximately 6%”. For the same compound, the “exposure to the toxin molecules” value in series [2] (female monkeys) is 3.85 µg·h/mL. Further, in series [2] (male monkeys), the “exposure to the toxin molecules” value amounted to 5.86 µg·h/mL.
